Results taken from patent publication US20210093637A1, “TOPICAL OINTMENT FORMULATIONS OF PDE-4 INHIBITOR AND THEIR USE IN TREATING SKIN CONDITIONS” (Dermavant Sciences GmbH, priority 2017, published 2021).
Values joined by “and” are separate entries in the source; they are usually repeats but may differ in a detail not shown here. Equal entries are not always repeated. Values belong to the compound of their own block, whether it stands above or below them.

What was measured:
[1] = Open-label Phase 1b study in pediatric patients (Example 7), plasma concentrations of RVT-501 and M11; format: in vivo, human; conditions: for subjects with measurable concentrations in plasma at one or more time points: PK Set n=25, LLOQ 0.25 ng/mL
From the text: During the Treatment Phase, subjects, their parent(s), or caregiver applied RVT-501 0.5% ointment to affected areas twice daily for 28 days. Subjects returned to the clinic at Week 1, Week 4, and follow-up for study assessments. On Day 1 and Weeks 2 and 3, subjects were contacted by phone to confirm their status, including any adverse events (AEs) and changes in concomitant medications.
Primary Endpoints: Frequency and severity of AE (local and systemic), Laboratory values, Vital signs, Plasma concentrations of RVT-501 and M11 metabolite.
Analysis Populations: All subjects enrolled in the study who had at least one application of study drug were included in the Safety Set. This was the population for the safety and efficacy analyses. The PK Set included all subjects who underwent plasma PK sampling and had evaluable PK assay results.
Pharmacokinetic Analyses: RVT-501 and M11 were measured in plasma by a validated assay. The number and percent of subjects with measurable concentration at each time point and at any time during the study were summarized. RVT-501 and M11 concentrations were summarized descriptively at each collection time point.

[2] = Stability of E6005 and M11 in human dried blood spots; format: physicochemical
Procedure: Stability: Following stability of E6005 and M11 in DBS was assessed at low and high concentrations using LQC and HQC samples (three replicates/concentration): bench-top stability for 7 days at room temperature, long-term frozen stability for 160 days […] below −15° C., and processed sample stability for 85 h at 4° C. To investigate impacts of high humidity on the stability, bench-top stability test was performed at room temperature with relative humidity of ca. 80%-84%. Samples were considered stable when % bias from the nominal concentrations was within ±15%.

[3] = Blood-to-plasma partition (B/P); format: in vitro ADME, human; conditions: for average B/P of two levels: 3 and 160 ng/mL; for blood plasma ratio at 3 ng/mL / blood plasma ratio at 160 ng/mL: human, whole blood and plasma prepared from it
Procedure: Blood-to-plasma partition and shelf-life of refrigerated blood: The blood-to-plasma partition (B/P) of E6005 and M11 was determined by assaying concentrations of E6005 and M11 in whole blood samples and plasma samples prepared from blood samples by centrifugation. […] The average B/P of two levels was 0.679 for E6005 and 0.584 for M11.

[4] = test system: pediatric subjects with mild to moderate atopic dermatitis; test: Phase 2 study in pediatric patients (Example 6), safety (adverse events); format: in vivo, human
From the text: Safety Endpoint: Frequency and severity of adverse events (AE; local and systemic).
Analysis Populations: All subjects enrolled in the study who had at least one application of investigational product were included in the Safety Set (SS). This was the population for the safety analyses.
Safety Analyses: The number and proportion of subjects with AEs were summarized by treatment, system organ classification, and preferred term for all adverse events, all adverse events considered by the investigator to be related to study drug, all serious adverse events (SAE), all Common Terminology Criteria for Adverse Events (CTCAE) Grade 3 or higher AEs, and all adverse events leading to study discontinuation. Summaries of AEs were presented separately for the Double-Blind and Open-Label Extension Phases.
Laboratory data were analyzed using descriptive summary statistics and changes from baseline. Categorical safety data were analyzed using frequency tables and, if applicable, shift tables. Vital signs were listed by subjects and summarized by treatment.

[5] = test system: healthy Japanese male subjects; conditions: cited from earlier work
[6] = test system: Japanese male subjects with AD; conditions: ointment 0.01% to 0.2%; cited from earlier work
[7] = test system: adults with mild to moderate AD; conditions: 0.2% ointment BID, 4 weeks; cited from earlier work
[8] = test system: pediatric subjects aged 2 to 15 years with mild to moderate AD; conditions: 0.05% and 0.2% ointment for 2 weeks; cited from earlier work
[9] = single dermal application; stripped skin; non-fasted male rats; cited from earlier work
[10] = Week 1 Hour 3, RVT-501 0.5% (N = 25)
[11] = Week 1 Hour 7, RVT-501 0.5% (N = 25)
[12] = Week 1 Pre-Dose, RVT-501 0.5% (N = 25)
[13] = Week 4 Pre-Dose, RVT-501 0.5%, N 23

subjects with measurable concentrations in plasma at one or more time points [1]: 40% | highest plasma concentration of M11 (Subject 03007) ([1]; Week 1, 7 hours post-dose): 23.4 ng/mL and 23.40 ng/mL | mean plasma concentration of the M11 metabolite ([1]; Week 1, 7 hours post-dose): 1.24 ng/mL | Number of subjects with measurable concentrations, (%) [1, 10]: (28.0) % | Plasma concentration, Max [1, 10]: 8.58 ng/mL | Plasma concentration, Mean [1, 10]: 0.61 ng/mL | Plasma concentration, Median [1, 10]: 0 µg/mL | Plasma concentration, Min [1, 10]: 0 µg/mL | Number of subjects with measurable concentrations, (%) [1, 11]: (28.0) % | Plasma concentration, Max [1, 11]: 23.40 ng/mL | Plasma concentration, Mean [1, 11]: 1.24 ng/mL | Plasma concentration, Median [1, 11]: 0 µg/mL | Plasma concentration, Min [1, 11]: 0 µg/mL | Number of subjects with measurable concentrations, (%) [1, 12]: (24.0) % | Plasma concentration, Max [1, 12]: 7.64 ng/mL | Plasma concentration, Mean [1, 12]: 0.57 ng/mL | Plasma concentration, Median [1, 12]: 0 µg/mL | Plasma concentration, Min [1, 12]: 0 µg/mL | Number of subjects with measurable concentrations, (%) [1, 13]: (17.4) % | Plasma concentration, Max [1, 13]: 1.07 ng/mL | Plasma concentration, Mean [1, 13]: 0.12 ng/mL | Plasma concentration, Median [1, 13]: 0 µg/mL | Plasma concentration, Min [1, 13]: 0 µg/mL | mean plasma concentration of the M11 metabolite ([1]; all time points except 7 hours post-dose at Week 1): below 1 ng/ml | % bias ([2]; Bench-top, after 7 days at RT, HQC (160 ng/mL)): 2.5% | % bias ([2]; Bench-top, after 7 days at RT, LQC (3 ng/mL)): 6.0% | % bias ([2]; In processed samples, after 85 h at 4° C., HQC (160 ng/mL)): 0.2% | % bias ([2]; In processed samples, after 85 h at 4° C., LQC (1 ng/mL)): 5.9% | % bias ([2]; Long-term, after 160 days at RT, HQC (160 ng/mL)): 9.4% | % bias ([2]; Long-term, after 160 days at RT, LQC (3 ng/mL)): 0.3% | % bias ([2]; Long-term, after 160 days below −15° C., HQC (160 ng/mL)): −1.3% | % bias ([2]; Long-term, after 160 days below −15° C., LQC (3 ng/mL)): −1.3% | % bias ([2]; Under high humidity, after 7 days at humidity 80-84%, HQC (160 ng/mL)): −12.5% | % bias ([2]; Under high humidity, after 7 days at humidity 80-84%, LQC (3 ng/mL)): −2.3% | average B/P of two levels [3]: 0.584 | blood plasma ratio at 3 ng/mL [3]: 0.594 | blood plasma ratio at 160 ng/mL [3]: 0.574
SMILES: CNc1nc(-c2cccc(NC(=O)c3ccc(C(=O)O)cc3)c2)c2cc(OC)c(OC)cc2n1 [Formulation M11, 4-((3-(6,7-dimethoxy-2-(methylamino)quinazolin-4-yl)phenyl)carbamoyl)benzoic acid]

subjects with measurable concentrations in plasma at one or more time points [1]: 40% | mean plasma concentration of RVT-501 ([1]; Week 1, 3 hours post-dose): 102.92 ng/mL | plasma level of RVT-501, Subject 03002 ([1]; Week 1, 3 hours post-dose): 710.0 ng/mL | mean plasma concentration of RVT-501 ([1]; Week 1, 7 hours post-dose): 62.16 ng/mL | plasma level of RVT-501, Subject 03001 ([1]; Week 1, 7 hours post-dose): 80.3 ng/mL | Number of subjects with measurable concentrations, (%) [1, 10]: (24.0) % | Plasma concentration, Max [1, 10]: 1860.00 ng/mL | Plasma concentration, Mean [1, 10]: 102.92 ng/mL | Plasma concentration, Median [1, 10]: 0 µg/mL | Plasma concentration, Min [1, 10]: 0 µg/mL | Number of subjects with measurable concentrations, (%) [1, 11]: (32.0) % | Plasma concentration, Max [1, 11]: 1470.00 ng/mL | Plasma concentration, Mean [1, 11]: 62.16 ng/mL | Plasma concentration, Median [1, 11]: 0 µg/mL | Plasma concentration, Min [1, 11]: 0 µg/mL | Number of subjects with measurable concentrations, (%) [1, 12]: (24.0) % | Plasma concentration, Max [1, 12]: 147.00 ng/mL | Plasma concentration, Mean [1, 12]: 6.00 ng/mL | Plasma concentration, Median [1, 12]: 0 µg/mL | Plasma concentration, Min [1, 12]: 0 µg/mL | mean plasma concentration of RVT-501 ([1]; Week 1 pre-dose): 6.00 ng/mL | plasma level of RVT-501, Subject 03007 ([1]; Week 1 pre-dose): 147.0 ng/mL | subjects with concentrations of RVT-501 ≥80 ng/ml ([1]; Week 1 visit): 16% | Number of subjects with measurable concentrations, (%) [1, 13]: (13.0) % | Plasma concentration, Max [1, 13]: 0.45 ng/mL | Plasma concentration, Mean [1, 13]: 0.05 ng/mL | Plasma concentration, Median [1, 13]: 0 µg/mL | Plasma concentration, Min [1, 13]: 0 µg/mL | highest plasma concentration of RVT-501 ([1]; human, in vivo): 1 860 ng/mL | average B/P of two levels [3]: 0.679 | blood plasma ratio at 3 ng/mL [3]: 0.69 | blood plasma ratio at 160 ng/mL [3]: 0.669
SMILES: CNc1nc(-c2cccc(NC(=O)c3ccc(C(=O)OC)cc3)c2)c2cc(OC)c(OC)cc2n1 [RVT-501, methyl N-[3-(6,7-dimethoxy-2-methylaminoquinazolin-4-yl)phenyl]terephthalamic acid]
subjects with study-drug-related mild application site pruritus ([4]; Double-Blind Phase): 6.1% | safety and tolerability ([4]; human, in vivo): generally safe and well tolerated | subjects who experienced SAE (all deemed not related) ([4]; human, in vivo): two | skin or systemic AEs ([5]; 0.01%-0.2% ointment QD or BID up to 11 days, patch/photopatch): No significant skin or systemic AEs | skin irritation, adverse events, laboratory values, vital signs, ECG, ophthalmological findings ([5]; ointment 0.01% to 0.2%): no clinically-significant findings | skin irritation, adverse events, laboratory values, vital signs, ECG, ophthalmological findings [6]: no clinically-significant findings | tolerability [7]: tolerability was good | adverse events attributable to the investigational product [8]: no adverse events considered attributable to the investigational product | radiolabelled RVT-501 in the skin application site 24 hours after administration, relative to levels after 30 minutes [9]: 75%
